Measured values taken from publication PMC10171913 (Journal of the American Chemical Society, 2022).

Tested on: tqq cluster of S. suis
Test: High-throughput elicitor screening
Type: cell-based, Streptococcus suis
Conditions: for elicitation of threoglucin E: 2D slice from the 3D map, abundance of threoglucin E across all 442 elicitors, Figure 2B; for elicited features in HiTES 3D difference map: ~442-member human endogenous metabolite library, UPLC-Qtof-MS, Figure 2A

Row | Compound | elicitation of threoglucin E | elicited features in HiTES 3D difference map
1 | c1cncc([C@@H]2CCCCN2)c1 [anabasine] | best elicitors | elicited peaks
2 | O=C(O)c1cccnc1 [niacin] | best elicitors | elicited peaks
3 | NC(=O)c1cccnc1 [nicotinamide] | – | elicited peaks
